The values that follow come from patent US9833497B2, “Human originated EGF domain proteins and use of the same” (CHENGDU SOURCEBIO LIMITED-LIABILITY COMPANY, priority 2013, dated 2017).

Common to all, as to type: cell-based
For test [1], the system named is E. coli DH5α. In words: Antibacterial activity: MIC and growth curve against E. coli DH5α in 96-well plate. As to conditions: minimal inhibitory concentration against E. coli DH5α; 96-well plate, 5×10^5 CFU/mL, 37° C., judged after 8 h. Summed up: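 MIC taken as lowest protein level with no bacterial growth, tracked by A600 every 30 min during 37 °C, 175 rpm culture. Two-fold protein series 50-12.5 μg/mL final, triplicate wells, against 5×10^5 CFU/mL of LB-washed mid-log cells.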

For test [2], the system named is Pseudomonas aeruginosa. In words: MIC against Gram-negative bacteria: Pseudomonas aeruginosa. As to conditions: 5×10^5 CFU/mL. Summed up: (§1)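 The recombinant human-originated EGF domain proteins were serially diluted two-fold against bacteria at 5×10^5 CFU/mL in LB medium. After shaken incubation at 37° C, the lowest concentration with no bacterial growth was recorded as the MIC.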

The subject of test [3] is Citrobacter diversus. In words: MIC against Gram-negative bacteria: Citrobacter diversus. As to conditions: 5×10^5 CFU/mL. Summed up: as §1
Test [4] relates to Aeromonas hydrophila. The test is described as follows: MIC against Gram-negative bacteria: Aeromonas hydrophila. As to conditions: 5×10^5 CFU/mL. Summed up:
as §1

Test [5] has as its system E. coli BL21. The test is described as follows: MIC against Gram-negative bacteria: E. coli BL21. The note with it: 5×10^5 CFU/mL. In outline:
as §1

For test [6], the system named is Klebsiella pneumonia. In words: MIC against Gram-negative bacteria: Klebsiella pneumonia. The note with it: 5×10^5 CFU/mL. In outline: as §1
For test [7], the system named is Proteus vulgaris. In words: MIC against Gram-negative bacteria: Proteus vulgaris. As to conditions: 5×10^5 CFU/mL. In outline: as §1
The subject of test [8] is Proteus mirabilis. The test is described as follows: MIC against Gram-negative bacteria: Proteus mirabilis. The note with it: 5×10^5 CFU/mL. Summed up:
as §1

The subject of test [9] is Moraxella catarrhalis. In words: MIC against Gram-negative bacteria: Moraxella catarrhalis. The note with it: 5×10^5 CFU/mL. In outline:
as §1

Test [10] has as its system Enterobacter cloacae. In words: MIC against Gram-negative bacteria: Enterobacter cloacae. As to conditions: 5×10^5 CFU/mL. In outline:
as §1

Test [11] concerns Serratia marcescens. The test is described as follows: MIC against Gram-negative bacteria: Serratia marcescens. The note with it: 5×10^5 CFU/mL. Summed up:
as §1

Setting [12] is: 10 h cultivation at 37° C., two-fold serial dilution.
[13] abbreviates: P. aeruginosa, 10 h cultivation at 37° C.
Setting [14] is: C. diversus, 10 h cultivation at 37° C.
[15] abbreviates: A. hydrophila, 10 h cultivation at 37° C.
The mark [16] stands for this setting: E. coli BL21, 10 h cultivation at 37° C.
Where [17] appears, read: K. pneumonia, 10 h cultivation at 37° C.
[18] abbreviates: P. vulgaris, 10 h cultivation at 37° C.
Setting [19] is: P. mirabilis, 10 h cultivation at 37° C.
Setting [20] is: M. catarrhalis, 10 h cultivation at 37° C.
The mark [21] stands for this setting: E. cloacae, 10 h cultivation at 37° C.
Where [22] appears, read: S. marcescens, 10 h cultivation at 37° C.

For orientation: MIC means the least concentration at which growth counts as inhibited. “PRT1106 (NTDECASQPCLHGGLCVDGENRYSCNCTGSGFTGTHCE; listed as Homo sapiens)” had an MIC in test [1] of 25 µg/mL. Moreover, in test [2] (setting [12]), the “MIC P. aeruginosa” value came to 12.5 µg/mL. For the same substance, the “MIC C. diversus” value in test [3] (setting [12]) is 25 µg/mL. Besides, in test [4] (setting [12]), the “MIC A. hydrophila” value is 12.5 µg/mL. Further, the “MIC E. coli BL21” value in test [5] (setting [12]) came out at 25 µg/mL. In addition, in [6] (setting [12]), the “MIC K. pneumonia” value is 25 µg/mL. The “MIC P. vulgaris” value in [7] (setting [12]) was determined as 12.5 µg/mL. In addition, the “MIC P. mirabilis” value in test [8] (setting [12]) was found to be 25 µg/mL. Also, in [9] (setting [12]), the “MIC M. catarrhalis” value came out at 50 µg/mL. Moreover, the “MIC E. cloacae” value in [10] (setting [12]) was 50 µg/mL. Moreover, in test [11] (setting [12]), the “MIC S. marcescens” value stood at 50 µg/mL.
Regarding “PRT851 (DELDCGPSNCSQHGLCTETGCRCDAGWTGSNCS; listed as Homo sapiens)”, the MIC in test [1] came out at 25 µg/mL. In addition, in [2] (setting [13]), the “MIC (μg/mL) P. aeruginosa” value was determined as 25 µg/mL. The “MIC (μg/mL) C. diversus” value in [3] (setting [14]) stood at 12.5 µg/mL. The “MIC (μg/mL) A. hydrophila” value in test [4] (setting [15]) amounted to 12.5 µg/mL. Moreover, the “MIC (μg/mL) E. coli BL21” value in [5] (setting [16]) is 12.5 µg/mL. Further, in test [6] (setting [17]), the “MIC (μg/mL) K. pneumonia” value was 12.5 µg/mL. Moreover, the “MIC (μg/mL) P. vulgaris” value in test [7] (setting [18]) was 12.5 µg/mL. Also, the “MIC (μg/mL) P. mirabilis” value in test [8] (setting [19]) was determined as 25 µg/mL. The “MIC (μg/mL) M. catarrhalis” value in test [9] (setting [20]) worked out at 12.5 µg/mL. Also, in test [10] (setting [21]), the “MIC (μg/mL) E. cloacae” value was 12.5 µg/mL. In [11] (setting [22]), the “MIC (μg/mL) S. marcescens” value is 25 µg/mL.
“PRT1382 (GVRSCPRGCSQRGRCKDGRCVCDPGYTGEDC; listed as Homo sapiens)” yielded an MIC in test [1] of 25 µg/mL. The “MIC against P. aeruginosa” value in [2] (Pseudomonas aeruginosa, 10 h cultivation at 37° C.) is 50 µg/mL. For the same substance, the “MIC against C. diversus” value in test [3] (Citrobacter diversus, 10 h cultivation at 37° C.) came to 50 µg/mL. Also, in test [4] (Aeromonas hydrophila, 10 h cultivation at 37° C.), the “MIC against A. hydrophila” value was 12.5 µg/mL. Moreover, the “MIC against E. coli BL21” value in [5] (setting [16]) was 12.5 µg/mL. For the same substance, the “MIC against K. pneumonia” value in test [6] (Klebsiella pneumonia, 10 h cultivation at 37° C.) stood at 100 µg/mL. In addition, in test [7] (Proteus vulgaris, 10 h cultivation at 37° C.), the “MIC against P. vulgaris” value is 25 µg/mL. Moreover, the “MIC against P. mirabilis” value in test [8] (Proteus mirabilis, 10 h cultivation at 37° C.) was determined as 12.5 µg/mL. For the same substance, in test [9] (Moraxella catarrhalis, 10 h cultivation at 37° C.), the “MIC against M. catarrhalis” value worked out at 12.5 µg/mL. Also, the “MIC against E. cloacae” value in test [10] (Enterobacter cloacae, 10 h cultivation at 37° C.) was found to be 50 µg/mL. Also, the “MIC against S. marcescens” value in test [11] (Serratia marcescens, 10 h cultivation at 37° C.) was 12.5 µg/mL.
Consider “PRT850 (CQCHGHVDPVKTPKICKPESGECINCLHNTTGFWCENCLEGYVHDLEGNCIK; listed as Homo sapiens)”, for which the MIC in [1] came out at 50 µg/mL. In addition, the “MIC (μg/mL) P. aeruginosa” value in test [2] (setting [13]) is 12.5 µg/mL. In addition, in [3] (setting [14]), the “MIC (μg/mL) C. diversus” value was 12.5 µg/mL. The “MIC (μg/mL) A. hydrophila” value in test [4] (setting [15]) was found to be 50 µg/mL. Also, the “MIC (μg/mL) E. coli BL21” value in [5] (setting [16]) was 25 µg/mL. The “MIC (μg/mL) K. pneumonia” value in test [6] (setting [17]) came out at 50 µg/mL. Further, the “MIC (μg/mL) P. vulgaris” value in test [7] (setting [18]) stood at 25 µg/mL. Moreover, the “MIC (μg/mL) P. mirabilis” value in test [8] (setting [19]) was 12.5 µg/mL. Moreover, in [9] (setting [20]), the “MIC (μg/mL) M. catarrhalis” value was determined as 50 µg/mL. In addition, the “MIC (μg/mL) E. cloacae” value in [10] (setting [21]) was found to be 12.5 µg/mL. Also, the “MIC (μg/mL) S. marcescens” value in test [11] (setting [22]) came to 50 µg/mL.
In turn, “PRT67 (EIDLCYSDPCGANGRCRSREGGYTCECFEDFTGEHCE; listed as Homo sapiens)” came in with a minimum inhibitory concentration (MIC) in test [1] of 12.5 µg/mL. In addition, in test [2] (Pseudomonas aeruginosa, 96-well plate, 37° C., 10 h), the “MIC (μg/mL) P. aeruginosa” value was found to be 12.5 µg/mL. In [3] (Citrobacter diversus, 96-well plate, 37° C., 10 h), the “MIC (μg/mL) C. diversus” value turned out to be 12.5 µg/mL. Moreover, the “MIC (μg/mL) A. hydrophila” value in test [4] (Aeromonas hydrophila, 96-well plate, 37° C., 10 h) stood at 25 µg/mL. The “MIC (μg/mL) E. coli BL21” value in test [5] (E. coli BL21, 96-well plate, 37° C., 10 h) was found to be 50 µg/mL. For the same substance, the “MIC (μg/mL) K. pneumonia” value in test [6] (Klebsiella pneumonia, 96-well plate, 37° C., 10 h) was 25 µg/mL. Further, the “MIC (μg/mL) P. vulgaris” value in test [7] (Proteus vulgaris, 96-well plate, 37° C., 10 h) was found to be 12.5 µg/mL. In addition, in [8] (Proteus mirabilis, 96-well plate, 37° C., 10 h), the “MIC (μg/mL) P. mirabilis” value stood at 50 µg/mL. Moreover, in test [9] (Moraxella catarrhalis, 96-well plate, 37° C., 10 h), the “MIC (μg/mL) M. catarrhalis” value was 25 µg/mL. Moreover, the “MIC (μg/mL) E. cloacae” value in test [10] (Enterobacter cloacae, 96-well plate, 37° C., 10 h) came to 50 µg/mL. The “MIC (μg/mL) S. marcescens” value in test [11] (Serratia marcescens, 96-well plate, 37° C., 10 h) stood at 50 µg/mL.
